Assay results from patent publication US9944589B2, “Cycloproplyamine derivatives useful as inhibitors of histone demethylases KDM1A” (Istituto Europeo de Oncologia S.r.L., priority 2012, dated 2018).
Structures can show the parent of a compound that is named as a salt.

Tests used:
[1] = system: Acute promyelocytic leukemia NB4 cells; assay: Cell growth (CellTiter-Fluor cell viability assay); format: cell-based; conditions: Homo sapiens, NB-4, 48 h, range classes, read-out: IC50 [μM], cell growth inhibitory assay
How it was run: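 Exponentially growing NB4 cells exposed to a range of inhibitor concentrations for 48 h. Viability then read as live-cell protease fluorescence (ex 360/em 535 nm) after ≥90 min reagent incubation at 37 °C; IC50 calculated from the data.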

[2] = system: mouse model of leukemia resembling the human acute promyelocytic leukemia; assay: In vivo activity, mouse leukemia model, splenomegaly as read out of blast infiltration; conditions: orally, 30 mg/kg, 4 days, leukemic mice
Experimental: The in vivo activity was conducted on a mouse model as characterized by Minucci et al. (Minucci S. et al. Blood 2002, 100, 2989-2995) The model is characterized by the development of leukemia, resembling the human acute promyelocytic leukemia, which is associated to a blast infiltration of several organs as bone marrow, liver and particularly of the spleen. In the conducted experiment, splenomegaly was studied as read out of blast infiltration and development of leukemia.
For the in vivo analysis, one million of leukemic cells (obtained from 129SvEv mice, Minucci S. et al. Blood 2002, 100, 2989-2995, obtained from Taconic, One Hudson City Centre Hudson, N.Y. (USA)) were injected intravenously into non-irradiated syngenic recipients. Treatment started once blast cells are detected in the recipients' peripheral blood (9 days after injection). The compounds were intravenously or orally administered at doses of 10 and 30 mg/kg for 4 days. […] after blast injection the mice were sacrificed and the spleens recovered. The weights of the spleen of the mice of the vehicle groups as well as of the treated groups were registered and used as evidence of effect on blast infiltration. […]
Compound A-36 administered orally at 30 mg/kg determined a reduction of the spleen weight of around 50% compared to mice treated with the vehicle (40% PEG-400, 60% aqueous solution containing 5% glucose) alone.

Human recombinant MAO B = biological target: T1, Human recombinant MAO B (Homo sapiens, UniProt P27338); conditions: ratio of IC50 against MAO-B over IC50 for LSD1
T1 sequence (P27338 1-520): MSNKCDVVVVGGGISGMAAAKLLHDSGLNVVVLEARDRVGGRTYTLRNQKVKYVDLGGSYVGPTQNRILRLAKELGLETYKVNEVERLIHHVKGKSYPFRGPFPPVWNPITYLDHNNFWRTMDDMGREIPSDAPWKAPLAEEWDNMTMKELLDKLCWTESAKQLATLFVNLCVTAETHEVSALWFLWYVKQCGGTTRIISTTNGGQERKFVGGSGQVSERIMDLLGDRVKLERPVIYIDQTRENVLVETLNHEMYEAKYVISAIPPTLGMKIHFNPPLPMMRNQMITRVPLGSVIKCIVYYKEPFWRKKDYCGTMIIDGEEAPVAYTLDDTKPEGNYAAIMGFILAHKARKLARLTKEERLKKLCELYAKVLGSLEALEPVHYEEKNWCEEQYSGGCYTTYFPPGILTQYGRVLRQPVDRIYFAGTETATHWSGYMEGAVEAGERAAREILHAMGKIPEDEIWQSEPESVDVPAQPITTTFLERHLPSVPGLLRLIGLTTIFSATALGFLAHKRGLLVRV
Experimental: The MAO-Glo Assay from Promega (cat. V1402, Promega, Madison, Wis.) was used to measure the effect of inhibitors on MAO-A and MAO-B activity.
After 30 minutes of incubation the reaction was stopped with the Promega detection reagent. The experiments were carried out in duplicate. IC50 was calculated using GraphPad Prism version 4.0 (GraphPad Software, San Diego, Calif.).

SMILES: CC[C@@]1(N)C[C@H]1c1ccc(NC(=O)c2ccc(-c3ccccc3)cc2)cc1 (relative stereo) [Example A-36, N-[4-[(trans)-2-amino-2-ethyl-cyclopropyl]phenyl]-4-phenyl-benzamide hydrochloride]
- IC50 [1]: ≤ 10 µM
- reduction of the spleen weight compared to mice treated with the vehicle [2]: around 50%
- IC50 (MAO-B)/IC50 (LSD1) (Human recombinant MAO B): 16
